This passage reports IC50 results from the Kinase Knowledgebase extract (Sharma et al. 2016).

The structures appear in SMILES notation.

The target in this experiment is PIK3CB;PIK3CG;PIK3CD;PIK3CA (human) (UniProt P48736). The experiment can be described thus: Enzyme Assay.

For `O=C(c1nn(C2CCNC2)c2c1CS(=O)(=O)c1ccccc1-2)N1CCOCC1` (stereo not drawn), the half-maximal inhibitory concentration (IC50) – broadly, the concentration at which inhibition is half-maximal – came to 4640 nM.
Next, `O=C(Nc1cccnc1)c1cccc(-n2nc(C(=O)N3CCOCC3)c3c2-c2ccccc2S(=O)(=O)C3)c1`: 926 nM; `CN(C)c1cccc(-n2nc(C(=O)N3CCOCC3)c3c2-c2ccccc2S(=O)(=O)C3)c1`: 4720 nM.
In the case of `O=C(c1nn(-c2ccc(CNC3CCOC3)cc2)c2c1CS(=O)(=O)c1ccccc1-2)N1CCOCC1` (stereo not drawn) it was 156 nM; in that of `O=C(c1nn(-c2cccc(CN3CCOCC3)c2)c2c1CS(=O)(=O)c1ccccc1-2)N1CCOCC1`, 1300 nM; in that of `O=C(c1nn([C@@H]2CCCN(C3CCOCC3)CC2)c2c1CS(=O)(=O)c1ccccc1-2)N1CCOCC1`, 104 nM.
In turn, `NC(=O)c1cccc2c1S(=O)(=O)Cc1c(C(=O)N3CCOCC3)nn(-c3ccccc3)c1-2` returned a concentration for half-maximal inhibition (IC50) of 7900 nM.
`CN(C)C(=O)c1ccc2c(c1)-c1c(c(C(=O)N3CCOCC3)nn1-c1ccccc1)CS2(=O)=O` gave an IC50 of 3730 nM.
In the case of `O=C(c1nn(-c2cccc(Cn3cccn3)c2)c2c1CS(=O)(=O)c1ccccc1-2)N1CCOCC1` it was 488 nM; in that of `COCCN1CCCC(n2nc(C(=O)N3CCOCC3)c3c2-c2ccccc2S(=O)(=O)C3)CC1` (stereo not drawn), 478 nM.
On to `Cc1ccc2c(c1)S(=O)(=O)Cc1c(C(=O)N3CCOCC3)nn(-c3ccccc3)c1-2`, for which the half-maximal inhibitory concentration (IC50) turned out to be 1840 nM.
Turning to `COCCN1CCC[C@H](n2nc(C(=O)N3CCOCC3)c3c2-c2cccc(OC)c2S(=O)(=O)C3)C1`, the IC50 came out at 128 nM.
Next, `O=C(c1nn(-c2cccc(CN3CCSCC3)c2)c2c1CS(=O)(=O)c1ccccc1-2)N1CCOCC1`: 232 nM; `O=C(c1nn(C2CCOC2)c2c1CS(=O)(=O)c1ccccc1-2)N1CCOCC1` (stereo not drawn): 890 nM.
In the case of `CCc1noc(Cn2nc(C(=O)N3CCOCC3)c3c2-c2ccccc2S(=O)(=O)C3)n1` it was 1920 nM.
The molecule `O=C(c1nn(-c2cccc(OCCn3ccnc3)c2)c2c1CS(=O)(=O)c1ccccc1-2)N1CCOCC1` registered a half-maximal inhibitory concentration (IC50) of 179 nM.
`CN1CCN(C(=O)c2ccc3c(c2)-c2c(c(C(=O)N4CCOCC4)nn2-c2ccccc2)CS3(=O)=O)CC1` had an IC50 of 4280 nM.
In the case of `O=C(c1cccc(-n2nc(C(=O)N3CCOCC3)c3c2-c2ccccc2S(=O)(=O)C3)c1)N1CCCC(CO)C1` (stereo not drawn) it was 502 nM.
Next, `Cn1nc(C(=O)N2CCOCC2)c2c1-c1cc(F)ccc1S(=O)(=O)C2`: 2220 nM.
Molecule `O=C(c1nn(C2CCN(CCC3CCOCC3)C2)c2c1CS(=O)(=O)c1c(F)cccc1-2)N1CCOCC1` (stereo not drawn) displayed a concentration for half-maximal inhibition (IC50) of 21 nM.
Next, `O=C(c1nn(C2CCCN(CCC3CCOCC3)C2)c2c1CS(=O)(=O)c1c(F)cccc1-2)N1CCOCC1` (stereo not drawn): 22 nM; `O=C(c1nn(C2CCCNC2)c2c1CS(=O)(=O)c1cc(OC(F)(F)F)ccc1-2)N1CCOCC1` (stereo not drawn): 10500 nM; `O=C(c1nn(-c2ccc(CN3CCOCC3)cc2)c2c1CS(=O)(=O)c1ccc(F)cc1-2)N1CCOCC1`: 555 nM.
Next, `O=C(c1nn(-c2ccc(F)cc2)c2c1CS(=O)(=O)c1ccccc1-2)N1CCOCC1`: 373 nM.
In the case of `COC1CCN(CCN2CCC[C@H](n3nc(C(=O)N4CCOCC4)c4c3-c3ccccc3S(=O)(=O)C4)C2)C1` (stereo partly drawn) it was 25 nM.
The molecule `O=C(c1nn(C2CCCN(CCc3ccccc3)C2)c2c1CS(=O)(=O)c1ccccc1-2)N1CCOCC1` (stereo not drawn) gave an IC50 of 711 nM.
As for `O=C(c1ccc(-n2nc(C(=O)N3CCOCC3)c3c2-c2ccccc2S(=O)(=O)C3)cc1)N1CCCCC1`, the IC50 is 238 nM.
In the case of `COCCN1CCC[C@H](n2nc(C(=O)N3CCOCC3)c3c2-c2cccc(F)c2S(=O)(=O)C3)C1` it was 31 nM.
`COc1ccc(-n2nc(C(=O)N3CCOCC3)c3c2-c2ccccc2S(=O)(=O)C3)cc1` registered an IC50 of 749 nM.
Next, `COc1cccc2c1S(=O)(=O)Cc1c(C(=O)N3CCOCC3)nn(C)c1-2`: 1730 nM; `COCCOc1cccc(-n2nc(C(=O)N3CCOCC3)c3c2-c2ccccc2S(=O)(=O)C3)c1`: 726 nM.
In the case of `COCCN1CCC(n2nc(C(=O)N3CCOCC3)c3c2-c2ccccc2S(=O)(=O)C3)C1` (stereo not drawn) it was 1480 nM; in that of `O=C(c1nn([C@H]2CCCN(CCn3ccnc3)C2)c2c1CS(=O)(=O)c1ccccc1-2)N1CCOCC1`, 5600 nM; in that of `O=C(c1nn(-c2ccc(CN3CCCC3)cc2)c2c1CS(=O)(=O)c1ccccc1-2)N1CCOCC1`, 285 nM.
Next, `O=C(c1nn(C2CCNCC2)c2c1CS(=O)(=O)c1ccccc1-2)N1CCOCC1`: 1520 nM.
`CN1CCCC(Cn2nc(C(=O)N3CCOCC3)c3c2-c2ccccc2S(=O)(=O)C3)C1` (stereo not drawn): the IC50 was found to be 6050 nM.
In the case of `COc1ccc2c(c1)S(=O)(=O)Cc1c(C(=O)N3CCOCC3)nn([C@H]3CCCN(CCN4CCOCC4)C3)c1-2` it was 24 nM.
Next, `O=C(c1nn(CC2CCCC2)c2c1CS(=O)(=O)c1ccccc1-2)N1CCOCC1`: 247 nM; `O=C(c1nn(-c2ccccc2)c2c1NS(=O)(=O)c1ccccc1-2)N1CCOCC1`: 5500 nM.
In the case of `Cc1cccc(-n2nc(C(=O)N3CCOCC3)c3c2-c2ccccc2S(=O)(=O)C3)c1` it was 926 nM; in that of `O=C(c1nn(-c2cccc(CO)c2)c2c1CS(=O)(=O)c1ccccc1-2)N1CCOCC1`, 2250 nM.
In the case of `O=C(c1nn([C@H]2CCN(CCN3CCC(F)CC3)C2)c2c1CS(=O)(=O)c1ccccc1-2)N1CCOCC1`, the IC50 was determined as 55 nM.
With `O=C(c1nn(-c2ccccc2)c2c1CS(=O)(=O)c1c(-c3ccccc3)cccc1-2)N1CCOCC1`, the IC50 amounted to 17900 nM.
Molecule `O=C(c1nn(-c2ccccc2)c2c1CS(=O)(=O)c1ccc([N+](=O)[O-])cc1-2)N1CCOCC1` registered an IC50 of 1830 nM.
Next, `O=C(c1nn(-c2ccc(CN3CCCC(F)(F)C3)cc2)c2c1CS(=O)(=O)c1ccccc1-2)N1CCOCC1`: 355 nM.
In the case of `O=C(CC1CCOCC1)N1CCC(n2nc(C(=O)N3CCOCC3)c3c2-c2ccccc2S(=O)(=O)C3)C1` (stereo not drawn) it was 733 nM; in that of `O=C(c1nn(C2CCC(CN3CCOCC3)CC2)c2c1CS(=O)(=O)c1ccccc1-2)N1CCOCC1` (stereo not drawn), 912 nM.
Molecule `O=C(c1nn([C@H]2CCCN(CCC3CCOCC3)C2)c2c1CS(=O)(=O)c1ccccc1-2)N1CCOCC1` had an IC50 of 34 nM.
In the case of `O=C(c1nn([C@@H]2CCCN(CCn3ccnc3)C2)c2c1CS(=O)(=O)c1ccccc1-2)N1CCOCC1` it was 444 nM; in that of `NCCCC1c2c(C(=O)N3CCOCC3)nn(-c3ccccc3)c2-c2ccccc2S1(=O)=O` (stereo not drawn), 4520 nM; in that of `O=C(c1nn(C2CCCN(CC3CCOC3)C2)c2c1CS(=O)(=O)c1c(F)cccc1-2)N1CCOCC1` (stereo not drawn), 21 nM.
In turn, `O=C(c1nn(-c2cccc(CN3CCCCC3)c2)c2c1CS(=O)(=O)c1ccccc1-2)N1CCOCC1` had an IC50 of 394 nM.
Next, `Cc1ccccc1-c1ccc(-n2nc(C(=O)N3CCOCC3)c3c2-c2ccccc2S(=O)(=O)C3)cc1`: 6470 nM.
In the case of `O=C(c1nn([C@H]2CCCN(C3CCOCC3)C2)c2c1CS(=O)(=O)c1c(F)cccc1-2)N1CCOCC1` it was 13 nM; in that of `Cc1nc(CN2CCCC(n3nc(C(=O)N4CCOCC4)c4c3-c3ccccc3S(=O)(=O)C4)C2)no1` (stereo not drawn), 134 nM.
In the case of `O=C(c1nn([C@H]2CCCN(C3CCCOC3)C2)c2c1CS(=O)(=O)c1ncccc1-2)N1CCOCC1` (stereo partly drawn) it was 36 nM.
Turning to `O=C(c1nn(-c2cccc(CN3CCS(=O)(=O)CC3)c2)c2c1CS(=O)(=O)c1ccccc1-2)N1CCOCC1`, the 50% inhibitory concentration (IC50) was 639 nM.
In the case of `CN(C)c1ccc2c(c1)S(=O)(=O)Cc1c(C(=O)N3CCOCC3)nn(-c3ccccc3)c1-2` it was 5020 nM; in that of `O=C(c1nn(-c2ccc(CN3CCCCC3)cc2)c2c1CS(=O)(=O)c1ccccc1-2)N1CCOCC1`, 110 nM; in that of `COc1ccc2c(c1)S(=O)(=O)Cc1c(C(=O)N3CCOCC3)nn([C@@H]3CCCN(CCC4CCOCC4)C3)c1-2`, 10300 nM.
In the case of `COc1ccc(-n2nc(C(=O)N3CCOCC3)c3c2-c2ccccc2S(=O)(=O)C3)cn1` it was 2200 nM; in that of `O=C(c1nn(-c2cccc(-c3ccncc3)c2)c2c1CS(=O)(=O)c1ccccc1-2)N1CCOCC1`, 193 nM; in that of `Cc1cccc2c1S(=O)(=O)Cc1c(C(=O)N3CCOCC3)nn([C@H]3CCCN(CCN4CCOCC4)C3)c1-2`, 49 nM.
In the case of `O=C(c1nn(C2CCN(CC3CCOC3)C2)c2c1CS(=O)(=O)c1ccccc1-2)N1CCOCC1` (stereo not drawn) it was 353 nM; in that of `O=C(c1nn([C@H]2CCCN(CCC3CCOCC3)C2)c2c1CS(=O)(=O)c1c(F)cccc1-2)N1CCOCC1`, 6 nM.
In the case of `O=C(c1nn(-c2ccc(CN3CCOCC3)nc2)c2c1CS(=O)(=O)c1ccccc1-2)N1CCOCC1`, the half-maximal inhibitory concentration (IC50) turned out to be 614 nM.
Next, `O=C(c1nn(C2CCCN(c3ccccc3)C2)c2c1CS(=O)(=O)c1ccccc1-2)N1CCOCC1` (stereo not drawn): 468 nM.
Next, `CC(C)(C)C1CCC(n2nc(C(=O)N3CCOCC3)c3c2-c2ccccc2S(=O)(=O)C3)CC1` (stereo not drawn): 4120 nM.
Next, `O=C(c1nn([C@H]2CCCN(CC3CCOCC3)C2)c2c1CS(=O)(=O)c1ccccc1-2)N1CCOCC1`: 25 nM.
In turn, `O=C(CC1CCCCC1)N1CCC(n2nc(C(=O)N3CCOCC3)c3c2-c2ccccc2S(=O)(=O)C3)C1` (stereo not drawn) came in with a half-inhibitory concentration (IC50) of 711 nM.
In the case of `COCCNCCN1CCC[C@H](n2nc(C(=O)N3CCOCC3)c3c2-c2ccccc2S(=O)(=O)C3)C1` it was 34 nM; in that of `COCCN(C)Cc1ccc(-n2nc(C(=O)N3CCOCC3)c3c2-c2ccccc2S(=O)(=O)C3)cc1`, 113 nM; in that of `CC1(C)CN(Cc2ccc(-n3nc(C(=O)N4CCOCC4)c4c3-c3ccccc3S(=O)(=O)C4)cc2)CCO1`, 120 nM.
In the case of `COC1CCCN(C(=O)c2cccc(-n3nc(C(=O)N4CCOCC4)c4c3-c3ccccc3S(=O)(=O)C4)c2)C1` (stereo not drawn) it was 246 nM; in that of `NCCN1CCC[C@H](n2nc(C(=O)N3CCOCC3)c3c2-c2ccccc2S(=O)(=O)C3)C1`, 73 nM; in that of `O=C(c1nn(C2CCCCC2)c2c1CS(=O)(=O)c1ncccc1-2)N1CCOCC1`, 437 nM.
For the molecule `O=C(CCN1CCC[C@H](n2nc(C(=O)N3CCOCC3)c3c2-c2ccccc2S(=O)(=O)C3)C1)N1CCC(F)(F)C1`, the IC50 was found to be 41 nM.
Take `Cn1nc(C(=O)N2CCOCC2)c2c1-c1cc(Br)ccc1S(=O)(=O)C2`: the IC50 is 1040 nM.
